The target in the first test is T1, α-7 nicotinic ACh receptor ion channel (Rattus norvegicus, UniProt Q05941).
T1 construct: expressed in transfected cells
T1 sequence (Q05941 23-502): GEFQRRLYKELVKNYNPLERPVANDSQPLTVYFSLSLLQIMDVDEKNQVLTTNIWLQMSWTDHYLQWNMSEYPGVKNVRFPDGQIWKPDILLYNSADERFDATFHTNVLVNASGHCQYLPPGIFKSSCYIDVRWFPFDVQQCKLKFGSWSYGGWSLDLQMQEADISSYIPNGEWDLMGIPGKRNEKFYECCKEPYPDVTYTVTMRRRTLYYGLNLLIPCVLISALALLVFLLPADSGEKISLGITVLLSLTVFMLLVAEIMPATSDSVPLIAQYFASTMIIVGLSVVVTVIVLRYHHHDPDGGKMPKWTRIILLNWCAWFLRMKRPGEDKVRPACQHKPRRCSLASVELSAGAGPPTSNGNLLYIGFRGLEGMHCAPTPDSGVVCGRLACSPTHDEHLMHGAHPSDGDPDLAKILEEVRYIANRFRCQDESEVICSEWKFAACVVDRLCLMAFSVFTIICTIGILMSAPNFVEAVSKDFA
The test can be described thus: FLIPR Ca2+-sensitive fluorescence assay of α7 nicotinic acetylcholine receptor channel function (agonist activity) in HEK 293 cells. The test is classed as cell-based. Particulars: Table 3; Ca2+ flux, HEK-293 cells expressing the channel. The protocol: I) α7 Nicotinic Acetycholine Receptor Binding. Membranes were prepared for binding using HEK293 cells stably expressing the rat α7 nicotinic acetycholine receptor (rat α7 nAChR). Cells were homogenized at 4° C. in hypotonic lysis buffer consisting of 10 mM Tris (pH 7.4), 5 mM EDTA and protease inhibitors and centrifuged at 32000×g for 20 minutes. The pellet was washed once in membrane wash buffer consisting of 50 mM Tris (pH 7.4), 1 mM EDTA and protease inhibitors and centrifuged at 32000×g for 20 minutes. This pellet was then resuspended in assay buffer consisting 50 mM KH2PO4 (pH 7.4 at 25° C.), 1 mM EDTA, 0.005% Triton-X 100 and 0.1% (v/v) Sigma Protease Inhibitor Cocktail. Aliquots were then frozen in dry ice/ethanol and kept at −80° C. until the day of the assay. II) A Ca^2+-Sensitive, Fluorescence-Based Assay α-7 for Nicotinic Acetylcholine Receptor Channel Function in Mammalian Cells (“FLIPR”). Summary: Lead compounds are evaluated for agonist activity at α-7, α3β4, α4αβ2, and α1β1δ1ε sub-types of nicotinic ACh receptor ion channels expressed in mammalian HEK 293 cells. Agonist potency and efficacy values are determined from kinetic fluorescence Ca^2+ influx measurements made using a 384 well FLIPR (Fluorescence Image Plate Reader). The utility of fluorescent indicators for measuring changes in intracellular divalent cation concentrations, particularly Ca^2+, for drug discovery endeavors is well documented (Rudiger, R., et al., Nature Reviews, 2003, 4:579-586; Gonzalez J. E., et al., Receptors and Channels, 2002, 8:283-295). In this assay, channel expressing HEK cell lines seeded in 384 well assay plates are loaded with a membrane permeant fluorescent Ca^2+ indicator dye, whose 510 nm green emission signal increases in response to elevation of intracellular Ca^2+ concentration. The basal fluorescence from the cells is monitored in real time, followed by the acute addition of test compounds. If the compound is an agonist at any of the non-selective cation channels, the latter open and allow the movement of extracellular Ca^2+ ions into the cell cytoplasm, where they bind to the Ca^2+ indicator dye, and produce an increase in fluorescence output signal, which is detected by a cooled CCD imaging camera.
(§1) Materials and Methods: Reagents: The acetomethoxy (AM) ester of the Ca^2+ indicator dye Fluo-4 was obtained from InVitrogen, (Carlsbad, Calif.). Acetylcholine and all buffer constituents were purchased from Sigma Chemical Company, St. Louis, Mo. G418 and Minimal Essential Medium were purchased from InVitrogen Life Technologies, Carlsbad, Calif. Fetal bovine serum was purchased from (InVitrogen, Carlsbad, Calif.).
(§2) Cell Culture: HEK-293 cells were grown in Minimal Essential Medium containing 10% (v/v) fetal bovine serum at 37° C. in a 5% CO2 incubator. HEK-293 cells stably expressing the ion channels were grown in the same medium with the addition of 500 μg/ml G418.
Ca^2+ flux assays of Ca^2+ channels expressed in HEK-293 cells: HEK-293 cells expressing the ion channels of interest were plated in 384 well, black-walled, clear-bottomed, poly-D-lysine coated plates at a density of ˜20,000 cells/well in 20 μl of Minimal Essential Medium containing 10% (v/v) fetal bovine serum and incubated for 2 days at 29° C. in a 5% CO2 incubator. Prior to assay, cells were loaded with the Fluo-4 AM ester. Cell loading was accomplished by removing the culture medium and replacing it with 30 μl/well of the AM ester of the dye (5 μM) mixed with Hanks Balanced Salt Solution (#14175-095) containing 20 mM HEPES, 2.5 mM probenecid, 0.5 mM CaCl2, 1 mM MgCl2 and 10 μM atropine. Dye loading was allowed to proceed for 90 minutes at room temperature at which time the dye loading solution was removed and replaced with 40 μl/well of Hanks buffer. Cells loaded with dye were loaded onto a FLIPR384 (Molecular Devices, Sunnyvale, Calif.). Fluo-4 dye was excited using the 488 nm line of an argon laser. Emission was filtered using a 540+/−30 nm bandpass filter. […]
Background: Calcium flux is commonly read through the fluorescence of an indicator in the cells.
T2 sequence (Q05941 23-502): as above
The EC50 is the concentration needed to bring the measured effect to its halfway point. `O=C(c1cc(C2CC2)[nH]n1)N1[C@@H]2C[C@H]3CC[N@@](C2)C[C@H]31` [Example 27, ((2R,3aR,6S,7aS)-hexahydro-2,6-methanopyrrolo[2,3-c]pyridin-1(2H)-yl)(5-cyclopropyl-1H-pyrazol-3-yl)methanone] displayed an EC50 greater than 100 µM.

`O=C(c1n[nH]c2c(Cl)cccc12)N1[C@@H]2C[C@H]3CC[N@@](C2)C[C@H]31` [Example 28, (7-chloro-1H-indazol-3-yl)((2R,3aR,6S,7aS)-hexahydro-2,6-methanopyrrolo[2,3-c]pyridin-1(2H)-yl)methanone] displayed an EC50 of 36 µM.

`O=C(c1noc2ccccc12)N1[C@@H]2C[C@H]3CC[N@@](C2)C[C@H]31` [Example 29, benzo[d]isoxazol-3-yl((2R,3aR,6S,7aS)-hexahydro-2,6-methanopyrrolo[2,3-c]pyridin-1(2H)-yl)methanone] had an EC50 of 3.1 µM.

For the compound `Cc1ccc2c(C(=O)N3[C@@H]4C[C@H]5CC[N@@](C4)C[C@H]53)n[nH]c2c1` [Example 30, (6-methyl-1H-indazol-3-yl)((2R,3aR,6S,7aS)-hexahydro-2,6-methanopyrrolo[2,3-c]pyridin-1(2H)-yl)methanone], a half-maximal effect (EC50) was put at 0.19 µM.

Consider `O=C(c1n[nH]c2ncccc12)N1[C@@H]2C[C@H]3CC[N@@](C2)C[C@H]31` [Example 31, ((2R,3aR,6S,7aS)-hexahydro-2,6-methanopyrrolo[2,3-c]pyridin-1(2H)-yl)(1H-pyrazolo[3,4-b]pyridin-3-yl)methanone], for which the EC50 was found to be 9.2 µM.

With `O=C(c1cc(-c2ccccc2)[nH]n1)N1[C@@H]2C[C@H]3CC[N@@](C2)C[C@H]31` [Example 32, ((2R,3aR,6S,7aS)-hexahydro-2,6-methanopyrrolo[2,3-c]pyridin-1(2H)-yl)(5-phenyl-1H-pyrazol-3-yl)methanone], the EC50 is greater than 100 µM.

Turning to `O=C(c1n[nH]c2ccccc12)N1[C@@H]2C[C@H]3CC[N@@](C2)C[C@H]31` [Example 33, ((2R,3aR,6S,7aS)-hexahydro-2,6-methanopyrrolo[2,3-c]pyridin-1(2H)-yl)(1H-indazol-3-yl)methanone], the concentration for a half-maximal effect (EC50) turned out to be 0.15 µM.

The next test has as its target T2, α7-HI (Rattus norvegicus, UniProt Q05941).
T2 construct: expressed in transfected cells
The test can be described thus: FLIPR Ca2+-sensitive fluorescence assay, α7-HI (agonist activity) in HEK 293 cells.
Settings: not given
The test is classed as cell-based. The protocol: I) α7 Nicotinic Acetycholine Receptor Binding. Membranes were prepared for binding using HEK293 cells stably expressing the rat α7 nicotinic acetycholine receptor (rat α7 nAChR). Cells were homogenized at 4° C. in hypotonic lysis buffer consisting of 10 mM Tris (pH 7.4), 5 mM EDTA and protease inhibitors and centrifuged at 32000×g for 20 minutes. The pellet was washed once in membrane wash buffer consisting of 50 mM Tris (pH 7.4), 1 mM EDTA and protease inhibitors and centrifuged at 32000×g for 20 minutes. This pellet was then resuspended in assay buffer consisting 50 mM KH2PO4 (pH 7.4 at 25° C.), 1 mM EDTA, 0.005% Triton-X 100 and 0.1% (v/v) Sigma Protease Inhibitor Cocktail. Aliquots were then frozen in dry ice/ethanol and kept at −80° C. until the day of the assay. II) A Ca^2+-Sensitive, Fluorescence-Based Assay α-7 for Nicotinic Acetylcholine Receptor Channel Function in Mammalian Cells (“FLIPR”). Summary: Lead compounds are evaluated for agonist activity at α-7, α3β4, α4αβ2, and α1β1δ1ε sub-types of nicotinic ACh receptor ion channels expressed in mammalian HEK 293 cells. Agonist potency and efficacy values are determined from kinetic fluorescence Ca^2+ influx measurements made using a 384 well FLIPR (Fluorescence Image Plate Reader). […] In this assay, channel expressing HEK cell lines seeded in 384 well assay plates are loaded with a membrane permeant fluorescent Ca^2+ indicator dye, whose 510 nm green emission signal increases in response to elevation of intracellular Ca^2+ concentration. The basal fluorescence from the cells is monitored in real time, followed by the acute addition of test compounds.
as §1, §2
Ca^2+ flux assays of Ca^2+ channels expressed in HEK-293 cells: HEK-293 cells expressing the ion channels of interest were plated in 384 well, black-walled, clear-bottomed, poly-D-lysine coated plates at a density of ˜20,000 cells/well in 20 μl of Minimal Essential Medium containing 10% (v/v) fetal bovine serum and incubated for 2 days at 29° C. in a 5% CO2 incubator. Prior to assay, cells were loaded with the Fluo-4 AM ester. […] Dye loading was allowed to proceed for 90 minutes at room temperature at which time the dye loading solution was removed and replaced with 40 μl/well of Hanks buffer. Cells loaded with dye were loaded onto a FLIPR384 (Molecular Devices, Sunnyvale, Calif.). Fluo-4 dye was excited using the 488 nm line of an argon laser. Emission was filtered using a 540+/−30 nm bandpass filter. For evaluation of the effects of test compounds using the Ca^2+ flux assay, compounds to be tested were provided in assay ready plates. For nicotinic receptor ion channel expressing cells, the assay was initiated by the addition of 20 μl/well of Hanks buffer containing test compounds. For all assays, data were collected at 1 Hz for 10 seconds (baseline), at which time the compound containing stimulus buffers are added, and further measurements collected at 0.33 Hz for 3 min.
Data Analysis: The statistical robustness of the nicotinic receptor Ca^2+ flux assays is determined from blanks and totals wells. […] The raw fluorescence units data files generated on the FLIPR plate reader are automatically exported and processed by in-house data analysis tools.
Consider `O=C(c1n[nH]c2ccccc12)N1[C@@H]2C[C@H]3C[N@](CC[C@H]31)C2` [Example 34b, ((2R,3aS,5S,7aR)-hexahydro-2,5-methanopyrrolo[3,2-c]pyridin-1(6H)-yl)(1H-indazol-3-yl)methanone], for which the EC50 came out at 0.25 µM.

The same test, now with this note: Table 4; Ca2+ flux, HEK-293 cells expressing the channel; read-out: FLIPR α7-HI (EC50).
Turning to `O=C(c1n[nH]c2ccccc12)N1[C@H]2C[C@@H]3C[N@@](CC[C@@H]31)C2` (single isomer, unassigned) [Example 34a], the EC50 turned out to be 0.0075 µM.

For the compound `O=C(c1n[nH]c2ccccc12)N1C2CC3CN(CCC31)C2` (stereo not drawn) [Example 34, ((2S*,3aR*,5R*,7aS*)-hexahydro-2,5-methanopyrrolo[3,2-c]pyridin-1(6H)-yl)(1H-indazol-3-yl)methanone], the EC50 was determined as 0.029 µM.

As to `O=C(c1cc2cccc(Cl)c2s1)N1C2CC3CN(CCC31)C2` (stereo not drawn) [Example 35, ((2S*,3aR*,5R*,7aS*)-(7-chloro-benzo[b]thiophen-2-yl)(hexahydro-2,5-methanopyrrolo[3,2-c]pyridin-1(6H)-yl)methanone], the EC50 amounted to 5.6 µM.

In the case of `O=C(c1ccc(Cl)cc1)N1C2CC3CN(CCC31)C2` (stereo not drawn) [Example 36, ((2S*,3aR*,5R*,7aS*)-(4-chlorophenyl)(hexahydro-2,5-methanopyrrolo[3,2-c]pyridin-1(6H)-yl)methanone], the EC50 is greater than 100 µM.

For the compound `Cn1nc(C(=O)N2C3CC4CN(CCC42)C3)c2ccccc21` (stereo not drawn) [Example 37, ((2S*,3aR*,5R*,7aS*)-(hexahydro-2,5-methanopyrrolo[3,2-c]pyridin-1(6H)-yl)(1-methyl-1H-indazol-3-yl)methanone], the EC50 is greater than 100 µM.

For the compound `O=C(c1cc(-c2ccccc2)n[nH]1)N1C2CC3CN(CCC31)C2` (stereo not drawn) [Example 38, ((2S*,3aR*,5R*,7aS*)-(hexahydro-2,5-methanopyrrolo[3,2-c]pyridin-1(6H)-yl)(3-phenyl-1H-pyrazol-5-yl)methanone], the EC50 was greater than 100 µM.

Take `Cn1cc(C(=O)N2C3CC4CN(CCC42)C3)c2ccccc21` (stereo not drawn) [Example 39, ((2S*,3aR*,5R*,7aS*)-(hexahydro-2,5-methanopyrrolo[3,2-c]pyridin-1(6H)-yl)(1-methyl-1H-indol-3-yl)methanone]: the EC50 is greater than 100 µM.

With `O=C(c1n[nH]c2ccc(Cl)cc12)N1C2CC3CN(CCC31)C2` (stereo not drawn) [Example 40, ((2S*,3aR*,5R*,7aS*)-(5-chloro-1H-indazol-3-yl)(hexahydro-2,5-methanopyrrolo[3,2-c]pyridin-1(6H)-yl)methanone], the EC50 was 0.079 µM.

Take `COc1ccc2[nH]nc(C(=O)N3C4CC5CN(CCC53)C4)c2c1` (stereo not drawn) [Example 41, ((2S*,3aR*,5R*,7aS*)-(5-methoxy-1H-indazol-3-yl)(hexahydro-2,5-methanopyrrolo[3,2-c]pyridin-1(6H)-yl)methanone]: the EC50 was greater than 100 µM.

Regarding `O=C(c1n[nH]c2cc(F)ccc12)N1C2CC3CN(CCC31)C2` (stereo not drawn) [Example 42, ((2S*,3aR*,5R*,7aS*)-(6-fluoro-1H-indazol-3-yl)(hexahydro-2,5-methanopyrrolo[3,2-c]pyridin-1(6H)-yl)methanone], the EC50 was 0.054 µM.
